Consider one compound from PMC9866218, “Characterization and Chemical Synthesis of Cm39 (α-KTx 4.8): A Scorpion Toxin That Inhibits Voltage-Gated K^+ Channel KV1.2 and Small- and Intermediate-Conductance Ca^2+-Activated K^+ Channels KCa2.2 and KCa3.1” (Toxins, 2023).

One assay concerns hKV1.4. Kind of assay: Whole-cell patch-clamp, block of KV1.4 current. In kind it is cell-based, human. The conditions noted are these: CHO cells. From the text: (§1) We, therefore, aimed at testing the pharmacological activity of sCm39 on a battery of various potassium and sodium ion channels. Among the tested channels were six members of human voltage-gated K^+ (hKV) channels from Shaker family, hKV1.1-hKV1.6 (Figure 3A–F) and three members of Ca^2+-activated potassium channel; hKCa2.2 (SK2, Figure 3I), the small-conductance Ca^2+-activated channel; hKCa3.1 (IKCa1, SK4. Figure 3J), the intermediate-conductance Ca^2+-activated channel expressed in T lymphocytes; and mKCa1.1 (BK, Slo1, MaxiK, Figure 3H), the large-conductance voltage- and Ca^2+-activated channel of mice. In addition, we also screened the effect of Cm39 on hKV11.1 (hERG1, Figure 3G), a voltage-gated cardiac K^+ channel, and two human voltage-gated sodium (hNaV) channels, hNaV1.4 (Figure 3K) and hNaV1.5 (Figure 3L), expressed in skeletal and cardiac muscles, respectively. These ion channels were heterologously expressed in the CHO or HEK cell lines except for KV1.3. Human peripheral T lymphocytes. They were stimulated with Phytohemagglutinin A (PHA) to increase the KV1.3 channel expression, and Ca^2+-free intracellular solution was used to avoid KCa3.1 channel activation. […]
Those plasmids which lack a fluorescent tag were co-transfected with a plasmid encoding GFP. […] Generally, currents were recorded 24 to 48 h post transfection. […]
A general note: The patch-clamp technique gives a direct electrical read-out from membranes.

A further assay concerns hNaV1.4. The assay can be described thus: Whole-cell patch-clamp, block of NaV1.4 current. The conditions noted are these: HEK 293 cells. In kind it is cell-based, human.
Source text: as §1, with “lymphocytes.” for “lymphocytes. They were stimulated with Phytohemagglutinin A (PHA) to increase the KV1.3 channel expression, and Ca^2+-free intracellular solution was used to avoid KCa3.1 channel activation.”
Whole-cell currents were recorded in voltage-clamped cells following standard protocols by using a Multiclamp 700B amplifier connected to a computer with Axon Digidata1440 digitizer and for data acquisition, Clampex 10.7 software was used (Molecular Devices). […]

Entries after “also recorded” stand apart in the source; their conditions may differ. A value given as a limit tells only on which side of the number the result lay.

With `CC[C@H](C)[C@@H]1NC(=O)[C@H](C)NC(=O)[C@H](C)NC(=O)[C@H](CCCCN)NC(=O)[C@@H]2CSSC[C@@H](C(=O)N[C@@H](Cc3ccc(O)cc3)C(=O)N[C@@H](Cc3ccc(O)cc3)C(=O)O)NC(=O)[C@H](CCCCN)NC(=O)[C@@H]3CSSC[C@H](NC(=O)[C@H](CCC(=O)O)NC(=O)[C@H](CO)NC(=O)[C@H](CO)NC(=O)[C@H](CO)NC(=O)[C@H](CCCCN)NC(=O)[C@@H](NC(=O)[C@H](CCCCN)NC(=O)[C@H](Cc4c[nH]cn4)NC(=O)[C@H](CC(N)=O)NC(=O)[C@@H](NC(=O)[C@H](Cc4ccccc4)NC(=O)[C@@H](N)[C@@H](C)O)[C@@H](C)CC)CSSC[C@H](NC(=O)[C@H](CCCCN)NC(=O)CNC(=O)[C@H](CO)NC(=O)[C@H](C)NC(=O)[C@H](CCCNC(=N)N)NC(=O)CNC1=O)C(=O)N[C@@H]([C@@H](C)CC)C(=O)N[C@@H](CC(N)=O)C(=O)N[C@@H](CO)C(=O)N[C@@H]([C@@H](C)O)C(=O)N3)C(=O)N[C@@H](CC(C)C)C(=O)N1CCC[C@H]1C(=O)N[C@@H](C)C(=O)N2` [Cm39], the “inhibition (in words)” value with hKV1.4 (1 μM) and with hNaV1.4 (1 μM) was “does not inhibit; also recorded: did not show any effect” in each case. Further, the decrease in current was below 3% with hKV1.4 (1 µM, 3−5 min, n = 3−5) and below 3% in the assay with hNaV1.4 (1 µM, 3−5 min, n = 3−5).
